We go through 5 molecules from patent US20250215032A1, “PHOSPHORYLPURINONE COMPOUNDS FOR THE TREATMENT OF CANCER” (Hoffmann-La Roche Inc., priority 2022, published 2025).

The nature of data set [1]: Dissolution test in fed state simulated intestinal fluid (FeSSIF). The class given is physicochemical. To be noted: FeSSIF pH 5, room temperature. On the procedure:
4.040 g of NaOH (pellets), 8.650 g of glacial acetic acid and 11.874 g of NaCl were dissolved in about 0.9 L of purified water. The pH was adjusted to 5 with either 1 N NaOH or 1 N HCl. The total volume of the mixture was made up to 1.0 L with purified water at room temperature.
To about 50 mL of blank FeSSIF buffer was added 1.120 g of SIF Powder Original (Biorelevant.com Ltd, Product code: FFF03, UK), the mixture was stirred until powder was completely dissolved. The total volume of the mixture was made up to 100 mL with blank FeSSIF buffer at room temperature.
(§1) Approximately 1-2 mg of each compound was added in excess into […] of buffer at room temperature. Each sample is placed in a microanalysis glass tube, which was sonicated for 1 h and agitated for 2 h. All suspensions were left overnight (about 16 h). On the next day, all pH values were measured with a pH-meter and the samples were filtered into a V-bottom plate with a micronic filterplate to separate the solid material from the solution. Then, all solutions were diluted into 96 well V-bottom microplates and analyzed by UPLC-UV.
(§2) The calibration line was established by UPLC using 5 different dilutions of the compound in a DMSO stock solution, made in micronic tubes (concentration approximately 1 mg/mL). Dilutions took place with DMSO (in special circumstances, with acetonitrile, or 80% HCl 0.1 N/20% acetonitrile). From this regression equation the solubility of the compound was determined. In cases where the compound was completely dissolved in the buffer, the value for equilibrium solubility was assumed to be higher than the value determined by UPLC and reported as such.

The target in data set [2] is T1, human TLR7 (Homo sapiens, UniProt Q9NYK1).
T1 sequence (Q9NYK1 27-1049): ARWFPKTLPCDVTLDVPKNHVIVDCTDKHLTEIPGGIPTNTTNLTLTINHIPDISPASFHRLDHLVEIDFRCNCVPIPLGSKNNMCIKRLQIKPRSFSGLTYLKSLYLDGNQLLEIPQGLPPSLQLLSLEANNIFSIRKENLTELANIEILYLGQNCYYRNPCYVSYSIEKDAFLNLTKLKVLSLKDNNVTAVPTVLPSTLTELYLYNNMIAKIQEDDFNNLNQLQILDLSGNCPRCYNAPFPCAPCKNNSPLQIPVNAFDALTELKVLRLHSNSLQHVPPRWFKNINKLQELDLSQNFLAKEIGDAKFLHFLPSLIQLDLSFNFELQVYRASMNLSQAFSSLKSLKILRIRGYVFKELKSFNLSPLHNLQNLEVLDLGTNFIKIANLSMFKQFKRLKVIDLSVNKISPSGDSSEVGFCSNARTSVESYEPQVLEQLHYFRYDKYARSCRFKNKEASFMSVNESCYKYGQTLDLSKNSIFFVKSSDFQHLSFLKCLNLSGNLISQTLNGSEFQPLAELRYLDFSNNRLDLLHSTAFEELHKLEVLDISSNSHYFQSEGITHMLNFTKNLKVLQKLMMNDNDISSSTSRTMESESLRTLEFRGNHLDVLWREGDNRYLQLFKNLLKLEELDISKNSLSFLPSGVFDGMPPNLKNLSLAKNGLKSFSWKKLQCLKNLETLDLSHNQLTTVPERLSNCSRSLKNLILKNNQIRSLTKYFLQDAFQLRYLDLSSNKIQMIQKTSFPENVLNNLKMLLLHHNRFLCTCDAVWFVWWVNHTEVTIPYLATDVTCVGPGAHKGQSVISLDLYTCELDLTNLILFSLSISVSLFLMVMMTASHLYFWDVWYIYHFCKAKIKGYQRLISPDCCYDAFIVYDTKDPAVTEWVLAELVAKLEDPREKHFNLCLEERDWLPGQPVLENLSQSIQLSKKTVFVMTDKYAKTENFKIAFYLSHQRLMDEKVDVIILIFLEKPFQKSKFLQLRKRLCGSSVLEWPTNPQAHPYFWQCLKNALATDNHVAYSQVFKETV
Briefly: HEK293-Blue-hTLR7 cells assay (SEAP reporter, NF-κB activation).
Description: A stable HEK293-Blue-h TLR7 cell line was purchased from InvivoGen (Cat. #: hkb-htlr7, San Diego, California, USA). These cells were designed for studying the stimulation of human TLR7 by monitoring the activation of NF-κB. A SEAP (secreted embryonic alkaline phosphatase) reporter gene was placed under the control of the IFN-β minimal promoter fused to five NF-κB and AP-1-binding sites. The SEAP was induced by activating NF-κB and AP-1 via stimulating HEK-Blue hTLR7 cells with TLR7 ligands. Therefore the reporter expression was regulated by the NF-κB promoter upon stimulation of human TLR7 for 20 hrs. The cell culture supernatant SEAP reporter activity was determined using QUANTI-Blue™ kit (Cat. #: rep-qb1, Invivogen, San Diego, Ca, USA) at a wavelength of 640 nm, a detection medium that turns purple or blue in the presence of alkaline phosphatase.
HEK293-Blue-hTLR7 cells were incubated at a density of 250,000˜450,000 cells/mL in a volume of 180 μL in a 96-well plate in Dulbecco's Modified Eagle's medium (DMEM) containing 4.5 g/L glucose, 50 U/mL penicillin, 50 mg/mL streptomycin, 100 mg/mL Normocin, 2 mM L-glutamine, 10% (V/V) heat-inactivated fetal bovine serum for 24 hrs. Then the HEK293-Blue-hTLR7 cells were incubated with addition of 20 μL test compound in a serial dilution in the presence of final DMSO at 1% and perform incubation under 37° C. in a CO2 incubator for 20 hrs.

A short description of data set [3]: Lyophilisation solubility assay (LYSA), kinetic solubility. As to conditions: aqueous buffer; 0.05 M phosphate buffer (pH 6.5), from 10 mM DMSO stock after evaporation. The class given is physicochemical. The source says: The solubility of a substance can be broadly defined as the maximum amount of the substance that dissolves in a specified volume of solvent. However, it is important to understand that the solubility of a compound can vary drastically depending on the condition of the solvent (e.g. temperature and pH) and the physiochemical properties of the compound (e.g. ionisation and crystallinity). These critical factors need to be considered during solubility determination in order to generate high quality solubility data that will be useful in the progression of compounds through the discovery and development stages. The kinetic solubility of a compound is the maximum solubility of the fastest precipitating species of the compound; this is often measured using a stock solution of the compound dissolved in an organic solvent, typically dimethyl sulfoxide (DMSO), as the starting material. […] The precipitate formed, which is rarely determined during the assessment, could be any combination of various possible solid states of the compound. Given the level of supersaturation that could occur when an organic solvent is diluted in water, kinetic solubility values are typically higher than the corresponding thermodynamic (equilibrium) solubility values. Solubility assays in the early discovery process often determine kinetic solubility. The lyophilisation solubility assay (LYSA) is a high throughput kinetic solubility assay for the early drug discovery process.
Samples were prepared in duplicate from 10 mM DMSO stock solution. After evaporation of DMSO with a centrifugal vacuum evaporator, the compounds were solved in 0.05 M phosphate buffer (pH 6.5), stirred for one hour and shaken for two hours. After one night, the solutions were filtered using a microtiter filter plate. Then the filtrate and its 1/10 dilution were analyzed by HPLC-UV. […] The results were in μg/mL. […] It should be noted that metastable solid phases may form during the evaporation step, and the method might therefore produce higher solubility values than assays using the stable polymorph as the starting material.

Data set [4] in a line: Dissolution test in fasted state simulated intestinal fluid (FaSSIF). As to conditions: FaSSIF pH 6.5, room temperature. The class given is physicochemical. On the procedure: 0.420 g of NaOH (pellets), 3.954 g of NaH2PO4 (monohydrate) and 6.186 g of NaCl were dissolved in about 0.9 L of purified water. The pH was adjusted to 6.5 with either 1 N NaOH or 1 N HCl. The total volume of the mixture was made up to 1.0 L with purified water at room temperature.
To about 50 mL of blank FaSSIF buffer was added 0.2240 g of SIF Powder Original (Biorelevant.com Ltd, Product code: FFF03, UK), the mixture was stirred until powder was completely dissolved. The total volume of the mixture was made up to 100 mL with blank FaSSIF buffer at room temperature.
as §1, §2

The nature of data set [5]: Thermodynamic solubility assay (THESA), equilibrium solubility. As to conditions: 22 °C, aqueous buffer, thermodynamic from solid; 50 mM phosphate buffer (pH 6.5), room temperature (22±2° C.). Type of data set: physicochemical. On the procedure: The thermodynamic (equilibrium) solubility is the saturation solubility of a compound at the end of the dissolution process, where the dissolved compound is in equilibrium with the undissolved material in excess. The thermodynamic solubility is determined by dispensing a solid compound into a solvent. This is often deemed as the true solubility of the compound and is a critical piece of information in formulation development. The thermodynamic solubility assay (THESA) is a widely used tool for the measurement of equilibrium solubility for the later drug discovery process and is considered as a gold standard solubility assay.
Approximately 1-2 mg of each compound was added into 300 μL of 50 mM phosphate buffer (pH 6.5) at room temperature (22±2° C.). Each sample is placed in a microanalysis tube, which was sonicated for 1 h and shaken for 2 h. All suspensions were left overnight (about 16 h). On the next day, the samples were filtered into a V-bottom plate with a micronic filterplate to separate the solid material from the solution. Then, all solutions were diluted into 96 well V-bottom microplates and analyzed by UPLC-UV. The calibration line was established by UPLC using 5 different dilutions of the compound in a DMSO stock solution, made in micronic tubes (concentration approximately 1 mg/mL). Dilutions took place with DMSO. From this regression equation the solubility of the compound was determined. In cases where the drug was completely dissolved in the buffer, the value for equilibrium solubility was assumed to be higher than the value determined by UPLC and reported as such.

Values after ≈ are worked out from the molar mass of the structure shown. Where two headings read alike, the source gives them in different places.

`CC[P@@](C)(=O)c1nc(N)c2[nH]c(=O)n(Cc3ccc(NCCN(C)C)nc3)c2n1` [Example 15-A, 6-amino-9-[[6-[2-(dimethylamino)ethylamino]-3-pyridyl]methyl]-2-[(R)-ethyl(methyl)phosphoryl]-7H-purin-8-one]: the “FeSSIF” value in data set [1] was 3987 µg/mL. Moreover, it took 0.018 µM to reach a half-maximal effect in data set [2] (EC50). In addition, the solubility (kinetic) in data set [3] was more than 560 µg/mL. The “FaSSIF” value in data set [4] was 3074 µg/mL. Further, the thermodynamic solubility in data set [5] is 4060 µg/mL (≈ 9.7 mM).

In the case of `CN(C)CCNc1ccc(Cn2c(=O)[nH]c3c(N)nc(P(C)(C)=O)nc32)cn1` [Example 1, 6-amino-9-[[6-[2-(dimethylamino)ethylamino]-3-pyridyl]methyl]-2-dimethylphosphoryl-7H-purin-8-one], the “FeSSIF” value in data set [1] is 3077 µg/mL. In addition, the EC50 in data set [2] came out at 0.034 µM. Moreover, the solubility (kinetic) in data set [3] is more than 540 µg/mL. Further, the “FaSSIF” value in data set [4] is 2527 µg/mL. Moreover, in data set [5], the solubility (thermodynamic) stood at 929 µg/mL (≈ 2.3 mM).

Take `CCCS(=N)(=O)c1nc(N)c2[nH]c(=O)n(Cc3ccc(Cl)nc3)c2n1` (stereo not shown) [RO14, reference compound]: the “FeSSIF” value in data set [1] was 21 µg/mL. Further, the EC50 in data set [2] (read-out: HEK293-Blue-h TLR7 (EC50 (μM)), HEK293-Blue-hTLR7 cells, 20 hrs incubation, SEAP reporter) amounted to 0.017 µM. Besides, the solubility (kinetic) in data set [3] was determined as 69 µg/mL. Further, the “FaSSIF” value in data set [4] was 14 µg/mL. Besides, in data set [5], the solubility (thermodynamic) stood at 33 µg/mL (≈ 0.0864 mM).

With `CC[P@](C)(=O)c1nc(N)c2[nH]c(=O)n(Cc3ccc(NCCN(C)C)nc3)c2n1` [Example 15-B, 6-amino-9-[[6-[2-(dimethylamino)ethylamino]-3-pyridyl]methyl]-2-[(S)-ethyl(methyl)phosphoryl]-7H-purin-8-one], the “FeSSIF” value in data set [1] was more than 4267 µg/mL. The EC50 in data set [2] came out at 0.012 µM. The solubility (kinetic) in data set [3] was more than 560 µg/mL. The “FaSSIF” value in data set [4] was more than 3733 µg/mL. In data set [5], the thermodynamic solubility is more than 4970 µg/mL.

In the case of `CN(C)CCOc1ccc(Cn2c(=O)[nH]c3c(N)nc(P(C)(C)=O)nc32)cn1` [Example 2, 6-amino-9-[[6-[2-(dimethylamino)ethoxy]-3-pyridyl]methyl]-2-dimethylphosphoryl-7H-purin-8-one], in data set [1], the “FeSSIF” value is 4801 µg/mL. A half-maximal response in data set [2] (EC50) required 0.019 µM. Moreover, in data set [3], the solubility (kinetic) was more than 540 µg/mL. For the same molecule, the “FaSSIF” value in data set [4] was 3519 µg/mL. In data set [5], this molecule had a solubility (thermodynamic) of 2780 µg/mL (≈ 6.85 mM).
